Data as given in patent US20250049680A1, “COMPOSITIONS AND METHODS FOR TREATING DENTIN CARIES” (Rutgers, The State University of New Jersey, priority 2023, published 2025).
“Also recorded” adds a separate entry of the source. Marks after values point to notes of the source that are not given here.

Columns and labels:
[1] = Solubility evaluation: weight loss of fortified dentin in butyric acid; design: species or system human; settings: for Solubility (weight loss): 0.1 M butyric acid pH 4.4, 24 h, 37 C, mean ± SD; for weight loss: pilot study, mean and standard deviation
Experimental: The column was further developed with 150 mL of one of five metal chloride solutions (0.1 mol/L AA2P salts of Mg, Zn, Mn, Sr, and Ba) to obtain a fraction containing new cationic L-ascorbic acid 2 phosphates with Mg, Zn, Mn, Sr, or Ba (FIG. 2). The prepared dentin specimens were randomly divided into six groups according to the solution used. The canal of each section was covered with an adhesive wax at the lower surface of the dentin specimen. Dentin specimens were then irrigated with one of five intervening solutions (AA2P salts of Mg (0.18 mM), Zn (5.3 μM), Mn (2.2×10^-8 M), Sr (1.8 μM), and Ba (1.9 μM)) for five minutes, with the saline solution used as the control group. The root canals were then flushed with 10 mL of distilled water immediately after each treatment to remove excess solution. […]
Fortified dentin specimens were completely immersed in 30 ml of 0.1 M butyric acid buffered with synthetic tissue fluid (pH 4.4) for 24 hours at 37 degrees C. and 100% relative humidity. After incubation, the specimens were removed from the acidic solutions, rinsed with distilled water to remove any residual acid, and dried. The weight of the dentin slices was measured by a digital microbalance before and after immersion into butyric acid, and the difference in weight provided information on dentin solubility.

[2] = Diametral tensile strength (DTS) of fortified dentin specimens after pH cycling; design: species or system human; settings: for Diametral tensile strength: 5 min irrigation, 3-day pH cycling, mean ± SD; for DTS compared with the control group: in words; for DTS: pilot study, mean and standard deviation
Experimental: (§1) The column was further developed with 150 mL of one of five metal chloride solutions (0.1 mol/L AA2P salts of Mg, Zn, Mn, Sr, and Ba) to obtain a fraction containing new cationic L-ascorbic acid 2 phosphates with Mg, Zn, Mn, Sr, or Ba (FIG. 2). The prepared dentin specimens were randomly divided into six groups according to the solution used. The canal of each section was covered with an adhesive wax at the lower surface of the dentin specimen. Dentin specimens were then irrigated with one of five intervening solutions (AA2P salts of Mg (0.18 mM), Zn (5.3 μM), Mn (2.2×10^-8 M), Sr (1.8 μM), and Ba (1.9 μM)) for five minutes, with the saline solution used as the control group. The root canals were then flushed with 10 mL of distilled water immediately after each treatment to remove excess solution.
(§2) Fortified dentin specimens were subjected to a pH cycling procedure with repeated sequences of de/remineralization. Artificial caries were formed in the dentin specimens by a 1-hour immersion in 2.5 mL of demineralizing solution (1.5 mM CaCl2), 0.9 mM KH2PO4, 50 mM acetate buffer, pH 4.8). All lesions were then immersed in 2.5 mL of remineralizing solution (1.5 mM CaCl2, 0.9 mM KH2PO4, 20 mM HEPES [4-(2-hydroxyethyl)-1-piperazineethanesulfonic acid], pH 7.0) for 23 hours. During each solution change, the specimens were rinsed with deionized water for 10 seconds. The pH cycling process was performed at 37 degrees Celsius for three days.
The cylindrical specimens were positioned on a customized loading fixture to ensure that the 1.00 mm diameter loading pin aligned with the center axis of the dentin cylinder. Additionally, flat platens were used at both ends of the specimens to further ensure alignment with the testing surface. The specimens were then loaded horizontally into a universal testing machine, receiving a uniaxial load perpendicular to their long axes and parallel to the dentinal tubule orientation. A 1.00 mm diameter stainless steel plunger was used to apply downward pressure on the dentin surface at 1.0 mm/min crosshead speed. The maximal load applied to the plug at the time of dislodgement was recorded in Newtons, and the DTS was calculated using the formula
where F is the force in Newtons, D is the diameter of the cylinder, and h is the height in mm.

[3] = SEM-EDS color dot map, intensity of the metal in dentin; design: species or system human; settings: for Unit of Intensity: EDS dot map at 1000x, 0 to 255 scale, mean ± SD; for color intensity: pilot study, mean and standard deviation
Experimental: as §1
Three specimens from each group were examined by SEM-EDS mode to observe the precipitation of metallic components on the dentin surface. All specimens were sectioned at a depth of 500 μm (exposure surface to fortifying solutions) using a diamond-coated disk under water cooling. The specimens' surfaces were then polished and sputter-coated with 10 nm gold and observed under an SEM. An EDS color dot map analysis was performed for each specimen at 1000× to evaluate the distribution of trace elements. The intensity of Mg, Zn, Mn, Sr, and Ba was measured using ImageJ software. The color maps were converted to binary, and their mean color intensity (0 to 255 scale) was recorded as a unit of intensity (UI).

[4] = Residual stress of treated dentin; settings: 5 min treatment with AA2P salts
Experimental: After establishing that inorganic trace minerals (IoTM) were dysregulated in dentin, Applicant aimed to examine if extrinsic supplementation could enhance dentinal mechanical properties. Specimens were treated with L-ascorbic acid 2-phosphate (AA2P) salts of IoTM as a solute carrier for the elements for 5 minutes. The following findings were observed, as described below.
Cationic substitution may lead to changes in residual stress. Stress magnitude and distribution by can be measured using XRD (Mn X-ray source, 1 mm aperture) as well as by slitting crack compliance, a destructive mechanical strain release technique, using whole dentin disk samples. In the slitting method, a rectangular sample with a strain gauge applied to the back side will be wired to the electrical discharge machine to cut through a sample to measure strain relief. Finite element analysis can be used to create the stress profile through the depth of a sample. However, the technique's accuracy is limited at the surface. In contrast, XRD is best for surface measurements with very high accuracy. Data can be acquired using a sine-squared psi method to indicate residual stress, modulus, and Poisson ratio. […] Pit depths can be measured using a drop gauge. […] The residual stress in the surface and sub-surface of dentin apatite (as deep as […]) can be determined.

[5] = Compressive strength of fortified dentin specimens after pH cycling; design: species or system human; settings: for Compressive strength: 5 min irrigation, 3-day pH cycling, mean ± SD
Experimental: as §1, §2
The procedure for compressive strength testing was the same as for DTS testing except for the orientation of the specimens in the universal testing machine. The loads were applied uniaxially, parallel to the long axes of the specimens, and perpendicular to the dentinal tubule orientation until the specimens fractured. To calculate the compressive strength (MPa), the failure load (N) was divided by the area of the specimen in contact with the load

[6] = Surface microhardness of fortified dentin specimens after pH cycling; design: species or system human; settings: for microhardness, rank among all the groups: in words
Experimental: as §1, §2
A Micro Met 5100 durometer microhardness tester was used to measure the hardness of the fortified dentin specimens after exposure to a caries inducing environment. Each dentin specimen was further divided into two sections. Three separate indentations were made in each section at depths of 100 μm and 500 μm from the pulp-dentin interface using a 300-g load with a dwell time of 20 seconds for each measurement. The indentations were then evaluated under an optical microscope, and the average length of their two diagonal lengths was used to determine the hardness. The average microhardness value of the indentations' results was considered representative of each depth in each specimen.

[7] = pH cycling model of artificial dentin caries; design: species or system human; settings: in words
Experimental: as §2

[8] = 100 and 500 μm depths combined, N=20

| Structure (SMILES) | Solubility (weight loss) [1] | weight loss [1] | Diametral tensile strength [2] | DTS compared with the control group [2] | DTS [2] | Unit of Intensity ([3]; 500 μm depth) | color intensity [3] | kind of residual stress generated [4] | Compressive strength [5] | compressive strength, rank among all the groups ([5]; in words) | Microhardness, Mean ([6]; 100 μM depth, N=10) | Microhardness, Mean ([6]; 500 μM depth, N=10) | Microhardness, Mean [6, 8] | microhardness, rank among all the groups ([6]; 100 μm depth) | microhardness, rank among all the groups ([6]; depths combined) | intensity / penetration, rank among all the groups ([3]; in words, 500 μm depth) | protection against artificial caries lesions [7] |
| --- | --- | --- | --- | --- | --- | --- | --- | --- | --- | --- | --- | --- | --- | --- | --- | --- | --- |
| O=C1O[C@H]([C@@H](O)CO)C([O-])=C1OP(=O)([O-])[O-].O=C1O[C@H]([C@@H](O)CO)C([O-])=C1OP(=O)([O-])[O-].[Sr+2].[Sr+2].[Sr+2] [Sr] | 18.53 ± 3.74 ^a % | 18.16±4.21% | 60.01 ± 2.70 ^b Mpa | significantly higher DTS than the control group | 59.99±1.91 Mpa | 6.03 ± 0.67 ^b Ui | 6.2±0.85 | compressive residual stress | 174.01 ± 11.09 ^c Mpa | highest | 47.60 kgf/mm^2 | 59.10 kgf/mm^2 | 53.35 kgf/mm^2 | highest | highest |  |  |
| O=C1O[C@H]([C@@H](O)CO)C([O-])=C1OP(=O)([O-])[O-].O=C1O[C@H]([C@@H](O)CO)C([O-])=C1OP(=O)([O-])[O-].[Mg+2].[Mg+2].[Mg+2] [Mg] | 12.73 ± 4.92 ^a % | 12.61±5.67% | 56.93 ± 11.93 ^b Mpa | significantly higher DTS than the control group | 57.60±15.21 Mpa | 9.76 ± 1.52 ^a Ui | 9.9±2.12 |  | 148.97 ± 6.89 ^b Mpa |  | 38.10 kgf/mm^2 | 57.20 kgf/mm^2 | 47.65 kgf/mm^2 |  |  | highest intensity; also recorded: highest penetration |  |
| O=C1O[C@H]([C@@H](O)CO)C([O-])=C1OP(=O)([O-])[O-].O=C1O[C@H]([C@@H](O)CO)C([O-])=C1OP(=O)([O-])[O-].[Zn+2].[Zn+2].[Zn+2] [Zn] | 12.88 ± 3.39 ^a % | 12.55±3.82% | 54.97 ± 10.12 ^b Mpa | significantly higher DTS than the control group | 53.98±9.94 Mpa | 7.1 ± 1.04 ^b Ui | 7.35±1.34 | tensile residual stress | 152.40 ± 15.07 ^b Mpa |  | 40.30 kgf/mm^2 | 56.30 kgf/mm^2 | 48.30 kgf/mm^2 |  |  |  | protected the dentin lesions |
| O=C1O[C@H]([C@@H](O)CO)C([O-])=C1OP(=O)([O-])[O-].O=C1O[C@H]([C@@H](O)CO)C([O-])=C1OP(=O)([O-])[O-].[Mn+2].[Mn+2].[Mn+2] [Mn] | 16.69 ± 3.97 ^a % | 16.48±4.55% | 56.07 ± 9.39 ^b Mpa | significantly higher DTS than the control group | 55.80±11.56 Mpa | 6.57 ± 0.95 ^b Ui | 6.1±0.71 |  | 148.03 ± 9.82 ^b Mpa |  | 40.60 kgf/mm^2 | 58.80 kgf/mm^2 | 49.70 kgf/mm^2 |  |  |  |  |
| O=C1O[C@H]([C@@H](O)CO)C([O-])=C1OP(=O)([O-])[O-].O=C1O[C@H]([C@@H](O)CO)C([O-])=C1OP(=O)([O-])[O-].[Ba+2].[Ba+2].[Ba+2] [Ba] | 19.03 ± 2.99 ^a % | 18.96±3.44% | 61.56 ± 3.55 ^b Mpa | significantly higher DTS than the control group | 61.96±4.47 Mpa | 5.57 ± 0.95 ^b Ui | 5.55±1.34 |  | 157.96 ± 18.22 ^bc Mpa |  | 45.00 kgf/mm^2 | 60.00 kgf/mm^2 | 52.50 kgf/mm^2 |  |  |  | protected the dentin lesions |
